Data from US10357514B2, “Treatment of cancer using anti-CD19 Chimeric Antigen Receptor” (The Trustees of the University of Pennsylvania, priority 2014, dated 2019).
Marks after values point to notes of the source that are not given here.

Assays:
[1] = tested on: PD-1-positive CD4 and CD8 and PD-1-negative CD4 T cells; test: FACS analysis of PD-1 on T cells in PBMC samples of subjects given RAD001; assay type: in vivo, human
B/Brisbane/60/2008 = test: Hemagglutination inhibition titer and seroconversion after 2012 seasonal influenza vaccination; assay type: in vivo, human; conditions: for HI GMT ratio, B: GMT at week 4 post vaccination/GMT at baseline; for Percent of subjects with seroconversion, B: 4 weeks after vaccination
Description: (§1) Results were expressed as fluorescence intensity.
(§2) The primary analysis of geometric mean titer ratios was done using a normal Bayesian regression model with non-informative priors. This model was fitted to each antibody titer on the log scale. The primary outcome in each model was the Day 84 measurement. The Day 63 measurement was included in the outcome vector. The model fitted using SAS 9.2 proc mixed with the prior statement. The covariance structure of the matrix was considered as unstructured (option type=UN). A flat prior was used. For the secondary analysis of seroconversion rates, logistic regression was used.
(§3) The ability of RAD001 to improve immune function in elderly volunteers was evaluated by measuring the serologic response to the 2012 seasonal influenza vaccine. The hemagglutination inhibition (HI) geometric mean titers (GMT) to each of the 3 influenza vaccine strains at baseline and 4 weeks after influenza vaccination are provided in Table 10. The primary analysis variable was the HI GMT ratio (4 weeks post vaccination/baseline). […] This endpoint was chosen because a 1.2-fold increase in the influenza GMT ratio induced by the MF-59 vaccine adjuvant was associated with a decrease in influenza illness (Iob, A et al. (2005) Epidemiol Infect 133:687-693).
(§4) Rates of seroconversion 4 weeks after influenza vaccination were also evaluated. Seroconversion was defined as the change from a negative pre-vaccination titer (i.e., HI titer <1:10) to post-vaccination HI titer ≥1:40 or at least 4-fold increase from a non-negative (≥1:10) pre-vaccination HI titer.

[2] = tested on: H1N1 A/California/07/2009; test: as above; assay type: in vivo, human; conditions: for HI GMT ratio, A/H1N1: GMT at week 4 post vaccination/GMT at baseline; for Percent of subjects with seroconversion, H1N1: 4 weeks after vaccination
Description: as §1, §2, §3, §4

H3N2 A/Victoria/210/2009 = test: as above; assay type: in vivo, human; conditions: for HI GMT ratio, A/H3N2: GMT at week 4 post vaccination/GMT at baseline; for Percent of subjects with seroconversion, H3N2: 4 weeks after vaccination
Description: as §1, §2, §3, §4

[3] = tested on: A/H3N2 strain A/Victoria/361/11; test: HI titer and seroconversion to heterologous influenza strain; assay type: in vivo, human; conditions: for Percentage of subjects who seroconvert to heterologous strain A/H3N2 A/Victoria/361/11: 4 weeks after seasonal influenza vaccination
pneumococcal serotypes = test: Antibody titers after pneumococcal vaccination (Pneumovax 23); assay type: in vivo, human; conditions: 7 serotypes measured; all 3 RAD cohorts
Description: Elderly volunteers >=65 years of age were randomized to one of the 3 RAD001 treatment groups (50 subjects per arm) or placebo (20 subjects per arm). Subjects were treated with study drug for 6 weeks, given a 2 week break, and then received influenza (Aggrippal, Novartis) and pneumoccal (Pneumovax 23, Merck), vaccinations. Response to influenza vaccination was assessed by measuring the geometric mean titers (GMTs) by hemagglutination inhibition assay to the 3 influenza strains (H1N1, H3N2 and B influenza subtypes) in the influenza vaccine 4 weeks after vaccination. The primary endpoints of the study were (1) safety and tolerability and (2) a 1.2 fold increase in influenza titers as compared to placebo in 2/3 of the influenza vaccine strains 4 weeks after vaccination. This endpoint was chosen because a 1.2 fold increase in influenza titers is associated with a decrease in influenza illness post vaccination, and therefore is clinically relevant. […] The pneumococcal vaccine contains antigens from 23 pneumococcal serotypes. Antibody titers to 7 of the serotypes were measured in our subjects.

[4] = Energy and exercise questionnaires one year after dosing; assay type: in vivo, human; conditions: 0.5 mg daily cohort
P70 S6K = test: Inhibition of P70 S6K activity in HeLa cells in vitro; conditions: Homo sapiens, read-out: % P70 S6K inhibition
[5] = week 6, pooled cohort, adjusted for baseline PD-1
[6] = week 12, pooled cohort, adjusted for baseline PD-1
[7] = week 12, 0.5 mg/Day, 5 mg/Week and 20 mg/Week cohorts
[8] = Baseline (2 weeks prior to influenza vaccination), 0.5 mg daily, N = 50
[9] = Baseline (2 weeks prior to influenza vaccination), 5 mg weekly, N = 49
[10] = Baseline (2 weeks prior to influenza vaccination), 20 mg weekly, N = 49
[11] = Intention to Treat Population, 0.5 mg, N = 48
[12] = Intention to Treat Population, 5 mg, N = 49
[13] = Intention to Treat Population, 20 mg, N = 48
[14] = Subjects with Baseline Titers <=40, 0.5 mg
[15] = Subjects with Baseline Titers <=40, 5 mg
[16] = Subjects with Baseline Titers <=40, 20 mg
[17] = Week 4 after influenza vaccination, 0.5 mg daily, N = 50
[18] = Week 4 after influenza vaccination, 5 mg weekly, N = 49
[19] = Week 4 after influenza vaccination, 20 mg weekly, N = 49

## CO[C@H]1C[C@@H]2CC[C@@H](C)[C@@](O)(O2)C(=O)C(=O)N2CCCC[C@H]2C(=O)O[C@H]([C@H](C)C[C@@H]2CC[C@@H](OCCO)[C@H](OC)C2)CC(=O)[C@H](C)/C=C(\C)[C@@H](O)[C@@H](OC)C(=O)[C@H](C)C[C@H](C)/C=C/C=C/C=C/1C [RAD001, (1R,9S,12S,15R,16E,18R,19R,21R,23S,24E,26E,28E,30S,32S,35R)-1,18-dihydroxy-12-{(1R)-2-[(1S,3R,4R)-4-(2-hydroxyethoxy)-3-methoxycyclohexyl]-1-methylethyl}-19,30-dimethoxy-15,17,21,23,29,35-hexamethyl-11,36-dioxa-4-aza-tricyclo[30.3.1.04,9]hexatriaconta-16,24,26,28-tetraene-2,3,10,14,20-pentaone]
[1]; [5]
  decrease in PD-1+ CD4 T cells compared to placebo: 30.2%
  decrease in PD-1-positive CD8 T cells compared to placebo: 37.4%
[1]; [6]
  decrease in PD-1-positive CD4 T cells compared to placebo: 32.7%
  decrease in PD-1-positive CD8 T cells compared to placebo: 41.4%
[1]; [7]
  decrease in PD-1-positive CD4 T cells as compared to placebo: −37.1-−28.5%
  decrease in PD-1-positive CD8 T cells as compared to placebo: −43.3-−38.5%
  increase in PD-1-negative CD4 T cells as compared to placebo: 3.0-4.9%
B/Brisbane/60/2008; [8]
  HI GMT, B: 44.2
B/Brisbane/60/2008; [9]
  HI GMT, B: 64.8
B/Brisbane/60/2008; [10]
  HI GMT, B: 58.0
B/Brisbane/60/2008; 0.5 mg daily, N = 50
  HI GMT ratio, B: 2.5
B/Brisbane/60/2008; 5 mg weekly, N = 49
  HI GMT ratio, B: 2.2
B/Brisbane/60/2008; 20 mg weekly, N = 49
  HI GMT ratio, B: 2.1
B/Brisbane/60/2008; [11]
  Percent of subjects with seroconversion, B: 27%
B/Brisbane/60/2008; [12]
  Percent of subjects with seroconversion, B: 22%
B/Brisbane/60/2008; [13]
  Percent of subjects with seroconversion, B: 19%
B/Brisbane/60/2008; [14]
  Percent of subjects with seroconversion, B: 40* Percent
B/Brisbane/60/2008; [15]
  Percent of subjects with seroconversion, B: 33%
B/Brisbane/60/2008; [16]
  Percent of subjects with seroconversion, B: 28%
B/Brisbane/60/2008; [17]
  HI GMT, B: 98.4
B/Brisbane/60/2008; [18]
  HI GMT, B: 117.3
B/Brisbane/60/2008; [19]
  HI GMT, B: 99.2
[2]; [8]
  HI GMT, A/H1N1: 102.8
[2]; [9]
  HI GMT, A/H1N1: 84.2
[2]; [10]
  HI GMT, A/H1N1: 90.1
[2]; 0.5 mg daily, N = 50
  HI GMT ratio, A/H1N1: 2.6
[2]; 5 mg weekly, N = 49
  HI GMT ratio, A/H1N1: 2.5
[2]; 20 mg weekly, N = 49
  HI GMT ratio, A/H1N1: 1.8
[2]; [11]
  Percent of subjects with seroconversion, H1N1: 27%
[2]; [12]
  Percent of subjects with seroconversion, H1N1: 27%
[2]; [13]
  Percent of subjects with seroconversion, H1N1: 17%
[2]; [14]
  Percent of subjects with seroconversion, H1N1: 42%
[2]; [15]
  Percent of subjects with seroconversion, H1N1: 45%
[2]; [16]
  Percent of subjects with seroconversion, H1N1: 36%
[2]; [17]
  HI GMT, A/H1N1: 190.2
[2]; [18]
  HI GMT, A/H1N1: 198.73
[2]; [19]
  HI GMT, A/H1N1: 129.7
H3N2 A/Victoria/210/2009; [8]
  HI GMT, A/H3N2: 106.8
H3N2 A/Victoria/210/2009; [9]
  HI GMT, A/H3N2: 126.04
H3N2 A/Victoria/210/2009; [10]
  HI GMT, A/H3N2: 137.1
H3N2 A/Victoria/210/2009; 0.5 mg daily, N = 50
  HI GMT ratio, A/H3N2: 2.1
H3N2 A/Victoria/210/2009; 5 mg weekly, N = 49
  HI GMT ratio, A/H3N2: 2.0
H3N2 A/Victoria/210/2009; 20 mg weekly, N = 49
  HI GMT ratio, A/H3N2: 2.1
H3N2 A/Victoria/210/2009; [11]
  Percent of subjects with seroconversion, H3N2: 27%
H3N2 A/Victoria/210/2009; [12]
  Percent of subjects with seroconversion, H3N2: 24%
H3N2 A/Victoria/210/2009; [13]
  Percent of subjects with seroconversion, H3N2: 25%
H3N2 A/Victoria/210/2009; [14]
  Percent of subjects with seroconversion, H3N2: 64%
H3N2 A/Victoria/210/2009; [15]
  Percent of subjects with seroconversion, H3N2: 53%
H3N2 A/Victoria/210/2009; [16]
  Percent of subjects with seroconversion, H3N2: 71%
H3N2 A/Victoria/210/2009; [17]
  HI GMT, A/H3N2: 194.4
H3N2 A/Victoria/210/2009; [18]
  HI GMT, A/H3N2: 223.0
H3N2 A/Victoria/210/2009; [19]
  HI GMT, A/H3N2: 223.0
[3]; 0.5 mg daily
  Percentage of subjects who seroconvert to heterologous strain A/H3N2 A/Victoria/361/11: 38%
[3]; 5 mg weekly
  Percentage of subjects who seroconvert to heterologous strain A/H3N2 A/Victoria/361/11: 39%*
[3]; 20 mg weekly
  Percentage of subjects who seroconvert to heterologous strain A/H3N2 A/Victoria/361/11: 40%*
[3]; RAD001 cohorts
  increase in HI GMT ratio for heterologous strain versus placebo: higher
[3]; pooled RAD001 cohorts, versus 20% placebo, p=0.007
  H3N2 heterologous strain seroconversion rate: 39%
Pneumococcal serotypes
  pneumococcal antibody titers compared to placebo: 6/7 serotypes were increased
[4]
  self-reported energy and exercise ability compared to placebo: increased energy and exercise ability
5 mg weekly, lower limit of quantification 0.3 ng/ml
  average RAD001 trough level: below detection limits
Dosing regimens used in the immunization study
  trough level of study dosing regimens lower than approved transplant and oncology regimens: 3-20 fold
P70 S6K
  inhibition at 6 pM: 0%
  inhibition at 32 pM: 18%
  inhibition at 0.0008 µM: 62%
  inhibition at 0.004 µM: 90%
  inhibition at 0.02 µM: 95%
